Consider eleven compounds from ChEMBL document CHEMBL1201862, “PubChem BioAssay data set” (2004).

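Briefly, cells in 96-well plates were exposed to five compound concentrations for 48 h, and endpoints were estimated by linear interpolation. The concentration for 50% growth inhibition is given as GI50.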 Calls of active or inactive are those of the source. Rule as the data show it: active = GI50 up to about 1.1 µM and inactive = higher.

Test systems include U-251; HCC 2998; NCI-H460; SW-620; NCI-H226; OVCAR-8; A498; SF-268; EKVX; CAKI-1; SK-OV-3; NCI/ADR-RES; HT-29; SK-MEL-28; TK-10; SN12C; Hs-578T; RXF 393; SNB-75.
Common to all, as to experiment: NCI-60 cell line screen, 48 h

With `CC1=C(C(=O)NNC(=O)c2ccccc2)CC(C(=O)NNC(=O)c2ccccc2)=C(C)N1`, the GI50 in the assay on U-251 was > 100 µM (inactive); with HCC 2998, > 100 µM (inactive); in the assay on NCI-H460 it was 92.9 µM (inactive); in the assay with SW-620 it was > 100 µM (inactive); with NCI-H226, > 100 µM (inactive); in the assay on OVCAR-8 it was > 100 µM (inactive). Moreover, the GI50 in the assay with A498, with SF-268, with EKVX, with CAKI-1, in the assay with SK-OV-3 and in the assay with NCI/ADR-RES was > 100 µM (inactive) each time. For the same compound, the GI50 with HT-29, in the assay on SK-MEL-28, in the assay with TK-10, with SN12C, in the assay on Hs-578T and in the assay with RXF 393 was > 100 µM (inactive) throughout.

On to `C1=Nc2sc3c(c2C2=NCCN12)CCCC3`, for which the GI50 with U-251 is 21.4 µM (inactive); in the assay with HCC 2998, 11.8 µM (inactive); with NCI-H460, 17.5 µM (inactive); in the assay on SNB-75 it was 18.9 µM (inactive); in the assay on SW-620, 21 µM (inactive); with NCI-H226, 13.3 µM (inactive). Besides, the GI50 in the assay on OVCAR-8 is 17.1 µM (inactive); in the assay on A498, 20.6 µM (inactive); in the assay on SF-268, 20.6 µM (inactive); in the assay with EKVX it was 15.6 µM (inactive); in the assay on CAKI-1, 17.4 µM (inactive); in the assay with NCI/ADR-RES, 18.2 µM (inactive). Moreover, the GI50 is 18.1 µM (inactive) in the assay on HT-29; 20.7 µM (inactive) with SK-MEL-28; 16.6 µM (inactive) in the assay with TK-10; 21.5 µM (inactive) with Hs-578T; 25 µM (inactive) in the assay on RXF 393.

Consider `CC(=O)OC1CN2CCC1CC2` (centres undefined) [ACECLIDINE], for which the GI50 with U-251, in the assay with HCC 2998, in the assay on NCI-H460, in the assay on SW-620, in the assay on NCI-H226 and in the assay on OVCAR-8 was > 100 µM (inactive) in each case. Moreover, the GI50 in the assay with A498 was 3.45 µM (inactive); with SF-268, > 100 µM (inactive); in the assay with EKVX, > 100 µM (inactive); in the assay with CAKI-1, > 100 µM (inactive); with SK-OV-3, > 100 µM (inactive); in the assay on NCI/ADR-RES it was > 100 µM (inactive). The GI50 in the assay with HT-29, in the assay on SK-MEL-28, with TK-10, in the assay with SN12C, in the assay on Hs-578T and in the assay on RXF 393 was > 100 µM (inactive) throughout.

On to `CN(C)Cc1cc(C=O)cc(CN(C)C)c1O`, for which the GI50 in the assay with U-251, with HCC 2998, in the assay on NCI-H460, in the assay on SNB-75, in the assay with SW-620 and with NCI-H226 was > 100 µM (inactive) in each case. The GI50 in the assay on OVCAR-8, in the assay with A498, with SF-268, in the assay with EKVX, in the assay with NCI/ADR-RES and in the assay with HT-29 was > 100 µM (inactive) each time. Further, the GI50 in the assay with SK-MEL-28, in the assay with TK-10, in the assay with SN12C, in the assay on Hs-578T and in the assay on RXF 393 was > 100 µM (inactive) each time.

`Clc1ccc(Cc2nc3cc4ccccc4cc3[nH]2)cc1Cl`: the GI50 in the assay with U-251 was 15.5 µM (inactive); in the assay with HCC 2998 it was 18.5 µM (inactive); in the assay with NCI-H460 it was 6.97 µM (inactive); in the assay with SNB-75 it was 17.3 µM (inactive); in the assay with SW-620 it was 17.4 µM (inactive); in the assay on NCI-H226, 25.2 µM (inactive). The GI50 was 20.1 µM (inactive) in the assay on OVCAR-8; 13.6 µM (inactive) with A498; 15.9 µM (inactive) with SF-268; 29.2 µM (inactive) in the assay on EKVX; 18.3 µM (inactive) in the assay on CAKI-1; 28.7 µM (inactive) in the assay with NCI/ADR-RES. For the same compound, the GI50 in the assay with HT-29 is 10.2 µM (inactive); with SK-MEL-28 it was 12.6 µM (inactive); with TK-10, 19.4 µM (inactive); in the assay with SN12C, 24 µM (inactive); with Hs-578T, 21.3 µM (inactive); in the assay with RXF 393, 16.4 µM (inactive).

Turning to `O=C(O)Cc1c(-c2ccc([N+](=O)[O-])cc2)c(=O)oc2cc(O)ccc12`, the GI50 with U-251 is 15.7 µM (inactive); with HCC 2998 it was 25.1 µM (inactive); in the assay with NCI-H460 it was 28.9 µM (inactive); in the assay on SW-620 it was 34.8 µM (inactive); with NCI-H226, 29 µM (inactive); in the assay with OVCAR-8 it was 23.2 µM (inactive). Also, the GI50 in the assay on A498 was 22.4 µM (inactive); in the assay on SF-268 it was 34.8 µM (inactive); with EKVX, 15.1 µM (inactive); with CAKI-1, > 10 µM (inactive); in the assay on SK-OV-3, 35.2 µM (inactive); with NCI/ADR-RES, 20 µM (inactive). Further, the GI50 was 11.6 µM (inactive) in the assay with HT-29; 38 µM (inactive) with SK-MEL-28; 33.2 µM (inactive) in the assay with TK-10; 30.5 µM (inactive) in the assay with SN12C; 25.9 µM (inactive) with Hs-578T; 30.3 µM (inactive) in the assay on RXF 393.

For `COc1ccc(-c2c(N)n(-c3cc(OC)cc(OC)c3)c(=O)c3cc([N+](=O)[O-])ccc23)cc1`, the GI50 was > 100 µM (inactive) with U-251; > 100 µM (inactive) in the assay on HCC 2998; > 100 µM (inactive) in the assay with NCI-H460; > 87.7 µM (inactive) in the assay with SW-620; > 36.1 µM (inactive) in the assay on NCI-H226; > 100 µM (inactive) with OVCAR-8. Further, the GI50 in the assay on A498 was 28 µM (inactive); in the assay on SF-268 it was 29.4 µM (inactive); in the assay with EKVX, 38.3 µM (inactive); with CAKI-1, 31.4 µM (inactive); in the assay on SK-OV-3 it was > 100 µM (inactive); in the assay with NCI/ADR-RES, > 66.1 µM (inactive). In addition, the GI50 was > 53.2 µM (inactive) in the assay with HT-29; > 100 µM (inactive) in the assay with SK-MEL-28; > 26 µM (inactive) in the assay with TK-10; > 100 µM (inactive) in the assay on SN12C; 6.01 µM (inactive) in the assay with Hs-578T; 11.1 µM (inactive) with RXF 393.

For `CC(C)[C@]12O[C@H]1[C@@H]1O[C@@]13[C@@]1(C)CCC4=C(COC4=O)[C@@H]1C[C@@H]1O[C@@]13C2=O` [TRIPTONIDE], the GI50 in the assay with U-251 was 0.101 µM (active); in the assay with HCC 2998, 0.029 µM (active); with NCI-H460 it was < 0.01 µM (active); in the assay on SNB-75 it was 0.0108 µM (active); with NCI-H226 it was < 0.0193 µM (active); in the assay on OVCAR-8, 0.0339 µM (active). Besides, the GI50 was 0.0178 µM (active) in the assay with A498; 0.0229 µM (active) in the assay with SF-268; 0.0287 µM (active) in the assay with EKVX; 0.0397 µM (active) in the assay with SK-OV-3; 0.0386 µM (active) in the assay on NCI/ADR-RES; < 0.01 µM (active) in the assay with HT-29. The GI50 in the assay on SK-MEL-28 was 0.0126 µM (active); in the assay with TK-10, 0.0261 µM (active); with SN12C, < 0.0172 µM (active); in the assay with Hs-578T it was < 0.0158 µM (active); with RXF 393, < 0.01 µM (active).

Consider `O=C1CSC(=O)/C1=C\NNc1nc2ccccc2o1`, for which the GI50 with HCC 2998 is 54.1 µM (inactive); in the assay on NCI-H460, 23.8 µM (inactive); in the assay on SW-620 it was 29.8 µM (inactive); with NCI-H226 it was 36 µM (inactive); in the assay with OVCAR-8 it was 13.6 µM (inactive); in the assay with A498 it was 25.5 µM (inactive). Besides, the GI50 is 30.5 µM (inactive) in the assay on SF-268; 34.5 µM (inactive) in the assay on EKVX; 23.9 µM (inactive) in the assay on CAKI-1; 32.3 µM (inactive) with SK-OV-3; 12.5 µM (inactive) with NCI/ADR-RES; 24.7 µM (inactive) in the assay with HT-29. The GI50 in the assay with SK-MEL-28 is 67 µM (inactive); with TK-10, 53.3 µM (inactive); in the assay on SN12C, 29.6 µM (inactive); in the assay with Hs-578T, 52.7 µM (inactive); in the assay on RXF 393, 21.8 µM (inactive).

On to `COc1ccc2c(c1)C1=NCCN(C)c3ccc([N+](=O)[O-])c(c31)N2`, for which the GI50 in the assay with U-251 is 1.34 µM (inactive); in the assay with HCC 2998, 1.26 µM (inactive); in the assay with NCI-H460 it was 0.271 µM (active); in the assay with SW-620, 0.415 µM (active); with NCI-H226, 0.502 µM (active); in the assay on OVCAR-8, 0.9 µM (active). Further, the GI50 in the assay with A498 was 1.61 µM (inactive); in the assay on SF-268 it was 0.731 µM (active); in the assay on EKVX, 1.56 µM (inactive); with CAKI-1 it was 0.698 µM (active); in the assay on SK-OV-3 it was 2.23 µM (inactive); in the assay on NCI/ADR-RES, 0.665 µM (active). Also, the GI50 with HT-29 is 0.573 µM (active); with SK-MEL-28, 2.55 µM (inactive); in the assay with TK-10, 2.86 µM (inactive); in the assay with SN12C it was 0.796 µM (active); in the assay with Hs-578T, 1.66 µM (inactive); with RXF 393 it was 0.277 µM (active).

With `COC1/C=C\C=C(/C)C(=O)NC2=CC(=O)C(O)=C(CC(C)CC(OC)C(O)C(C)/C=C(\C)C1OC(N)=O)C2=O` (centres undefined), the GI50 with U-251 is 1.03 µM (active); with HCC 2998, 1.4 µM (inactive); in the assay on NCI-H460, 1.5 µM (inactive); in the assay on SW-620, 0.0158 µM (active); with NCI-H226, > 100 µM (inactive); in the assay on OVCAR-8 it was 0.351 µM (active). For the same compound, the GI50 is 38.5 µM (inactive) with A498; 5.7 µM (inactive) in the assay with SF-268; 10.8 µM (inactive) with EKVX; 2.55 µM (inactive) in the assay on CAKI-1; 3.59 µM (inactive) in the assay with SK-OV-3; 64.6 µM (inactive) in the assay with NCI/ADR-RES. Moreover, the GI50 in the assay on HT-29 is 0.0269 µM (active); in the assay with SK-MEL-28, 0.316 µM (active); in the assay with TK-10, 0.438 µM (active); in the assay on SN12C, 0.0446 µM (active); in the assay on Hs-578T, 3.13 µM (inactive); with RXF 393 it was 0.136 µM (active).
